SMILES strings stand for the structures.

Usually IC50 stands for the concentration needed to halve the response being measured.

What all share (format): cell-based
In test [1] the target is T1, α4β7 integrin (Homo sapiens (Human), UniProt P13612+P26010). In words: MAdCAM-1/α4β7 integrin binding inhibitory activity evaluation test (RPMI-8866 cell adhesion to MAdCAM-1/Fc). As to conditions: for Selectivity: IC50 in VCAM-1/α4β1 test divided by IC50 in MAdCAM-1/α4β7 test; for IC50: RPMI-8866 cells binding to recombinant mouse MAdCAM-1/Fc, no serum. The procedure, abridged: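 Human RPMI-8866 cells (α4β7+) adhered for 15–60 min at 30 °C to plates coated with recombinant mouse MAdCAM-1/Fc, in DMEM binding buffer with 4 mM MnCl2 and test compound. Bound cells were quantified via LDH activity (A490) after lysis. IC50 is the 50% inhibition of binding relative to compound-free wells.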

The target of test [2] is T1, α4β7 integrin. In words: MAdCAM-1/α4β7 integrin binding inhibitory activity evaluation test in the presence of serum (1). As to conditions: RPMI-8866 cells binding to mouse MAdCAM-1/Fc, human serum at final concentration of 50%; read-out: α4β7 with serum added, IC50. The procedure, abridged: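 Plates were coated with recombinant mouse MAdCAM-1/Fc (1 μg/mL, pH 9.6). Human RPMI-8866 B cells (α4β7-expressing) bound for 15–60 min at 30 °C in DMEM/HEPES/BSA with 4 mM MnCl2 and 50% human serum, with test substance present. Bound cells were quantified by LDH absorbance at 490 nm, run in duplicate, and IC50 was calculated relative to no-compound wells.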

The next test deals with α4β1 integrin (Homo sapiens (Human), UniProt P05556+P13612). Briefly: VCAM-1/α4β1 integrin binding inhibitory activity evaluation test (Jurkat cell adhesion to VCAM-1/Fc). As to conditions: Jurkat cells binding to recombinant human VCAM-1/Fc. Put shortly:
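Jurkat cells (5×10^5/well) added with compounds to plates coated with recombinant human VCAM-1/Fc (1 μg/mL coating), in DMEM binding buffer with 40 mM HEPES, 0.2% BSA and 4 mM MnCl2, 15-60 min at 30° C. Bound cells lysed and quantified by LDH absorbance at 490 nm; IC50 relative to compound-free wells, in duplicate.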

α4β1 integrin, sequence (P13612 34-1032): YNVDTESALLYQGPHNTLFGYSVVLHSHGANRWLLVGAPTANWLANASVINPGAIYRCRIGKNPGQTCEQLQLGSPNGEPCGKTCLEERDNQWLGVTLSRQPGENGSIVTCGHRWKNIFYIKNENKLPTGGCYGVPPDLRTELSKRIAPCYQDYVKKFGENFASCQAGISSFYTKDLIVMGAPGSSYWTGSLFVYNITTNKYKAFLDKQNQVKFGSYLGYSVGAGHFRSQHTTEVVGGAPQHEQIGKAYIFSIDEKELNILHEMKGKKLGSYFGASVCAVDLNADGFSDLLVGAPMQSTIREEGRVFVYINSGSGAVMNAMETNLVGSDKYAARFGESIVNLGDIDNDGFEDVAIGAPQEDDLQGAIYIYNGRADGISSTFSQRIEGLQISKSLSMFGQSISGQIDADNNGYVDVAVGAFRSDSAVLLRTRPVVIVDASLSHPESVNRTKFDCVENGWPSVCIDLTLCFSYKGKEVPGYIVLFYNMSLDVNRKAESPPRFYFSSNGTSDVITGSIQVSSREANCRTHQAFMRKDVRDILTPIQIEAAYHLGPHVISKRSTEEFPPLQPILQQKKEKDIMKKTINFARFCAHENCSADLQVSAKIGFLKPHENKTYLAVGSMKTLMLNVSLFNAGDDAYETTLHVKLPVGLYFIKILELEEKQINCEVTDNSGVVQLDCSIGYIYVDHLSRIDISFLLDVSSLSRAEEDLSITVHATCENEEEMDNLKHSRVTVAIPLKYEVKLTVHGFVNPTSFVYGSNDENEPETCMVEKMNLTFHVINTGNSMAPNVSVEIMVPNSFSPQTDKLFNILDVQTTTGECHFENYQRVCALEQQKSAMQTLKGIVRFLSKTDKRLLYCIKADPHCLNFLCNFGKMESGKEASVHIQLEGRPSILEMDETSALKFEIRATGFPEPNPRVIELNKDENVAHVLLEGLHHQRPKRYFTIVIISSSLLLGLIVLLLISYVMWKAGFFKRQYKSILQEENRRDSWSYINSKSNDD
α4β1 integrin, sequence (P05556 21-798): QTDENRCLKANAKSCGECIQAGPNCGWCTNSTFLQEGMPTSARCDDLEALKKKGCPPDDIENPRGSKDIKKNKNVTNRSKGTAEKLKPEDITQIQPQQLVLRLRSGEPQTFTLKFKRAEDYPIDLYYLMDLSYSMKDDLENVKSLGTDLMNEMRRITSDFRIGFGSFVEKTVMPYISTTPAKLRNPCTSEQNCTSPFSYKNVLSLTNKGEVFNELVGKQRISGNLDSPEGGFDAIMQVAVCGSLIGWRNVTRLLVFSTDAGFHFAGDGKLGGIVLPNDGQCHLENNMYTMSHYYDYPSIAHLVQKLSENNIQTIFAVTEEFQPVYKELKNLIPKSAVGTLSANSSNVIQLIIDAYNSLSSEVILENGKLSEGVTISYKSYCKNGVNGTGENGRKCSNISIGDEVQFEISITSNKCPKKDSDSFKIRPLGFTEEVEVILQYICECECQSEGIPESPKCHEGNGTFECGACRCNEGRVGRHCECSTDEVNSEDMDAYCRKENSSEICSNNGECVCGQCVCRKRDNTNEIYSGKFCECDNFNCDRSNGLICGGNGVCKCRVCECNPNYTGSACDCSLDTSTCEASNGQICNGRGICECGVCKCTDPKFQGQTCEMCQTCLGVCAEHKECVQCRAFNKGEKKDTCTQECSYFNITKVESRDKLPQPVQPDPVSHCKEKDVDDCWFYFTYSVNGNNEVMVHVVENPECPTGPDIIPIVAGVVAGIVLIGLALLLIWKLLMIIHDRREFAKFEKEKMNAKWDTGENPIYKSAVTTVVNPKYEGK
T1 sequence (P13612 34-1032): as the sequence (P13612 34-1032) above
T1 sequence (P26010 20-798): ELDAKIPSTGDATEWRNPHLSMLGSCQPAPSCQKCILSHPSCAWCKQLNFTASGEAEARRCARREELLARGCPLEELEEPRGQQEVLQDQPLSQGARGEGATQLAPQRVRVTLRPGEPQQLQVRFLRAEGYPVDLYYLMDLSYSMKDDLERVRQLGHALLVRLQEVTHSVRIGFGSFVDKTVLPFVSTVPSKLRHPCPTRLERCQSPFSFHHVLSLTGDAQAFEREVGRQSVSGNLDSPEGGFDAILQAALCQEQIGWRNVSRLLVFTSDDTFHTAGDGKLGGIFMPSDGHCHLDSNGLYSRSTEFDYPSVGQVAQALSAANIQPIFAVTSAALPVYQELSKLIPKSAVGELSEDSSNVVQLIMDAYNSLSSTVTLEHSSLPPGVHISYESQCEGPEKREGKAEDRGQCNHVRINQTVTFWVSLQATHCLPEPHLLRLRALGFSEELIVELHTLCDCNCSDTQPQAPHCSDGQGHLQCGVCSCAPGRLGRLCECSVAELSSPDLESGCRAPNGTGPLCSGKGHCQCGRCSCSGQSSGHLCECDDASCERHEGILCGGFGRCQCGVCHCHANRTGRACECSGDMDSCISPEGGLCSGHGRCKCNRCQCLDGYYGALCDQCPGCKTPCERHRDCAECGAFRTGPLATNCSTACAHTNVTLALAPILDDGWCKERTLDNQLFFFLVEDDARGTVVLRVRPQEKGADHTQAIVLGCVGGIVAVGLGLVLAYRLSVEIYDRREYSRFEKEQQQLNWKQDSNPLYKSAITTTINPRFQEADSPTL

In turn, `Cn1ccc(=O)n(-c2ccc(C[C@H](NC(=O)c3c(F)cc(NS(=O)(=O)c4ccc(-n5ccnn5)cn4)cc3F)C(=O)O)cc2)c1=O` [Example 73, N-[2,6-Difluoro-4-({[5-(1H-1,2,3-triazol-1-yl)pyridin-2-yl]sulfonyl}amino)benzoyl]-4-(3-methyl-2,6-dioxo-3,6-dihydropyrimidin-1(2H)-yl)-L-phenylalanine] came in with a Selectivity on α4β7 integrin [1] of 430. The IC50 at α4β7 integrin [1] turned out to be 0.95 nM; at α4β7 integrin [2] it was 6.5 nM; at α4β1 integrin it was 410 nM.

In turn, `Cc1cc(-c2ccc(S(=O)(=O)Nc3cc(F)c(C(=O)N[C@@H](Cc4ccc(-n5c(=O)c6c(ncn6C)n(C)c5=O)cc4)C(=O)O)c(F)c3)cc2)ccn1` [Example 74, N-[2,6-Difluoro-4-({[4-(2-methylpyridin-4-yl)phenyl]sulfonyl}amino)benzoyl]-4-(3,7-dimethyl-2,6-dioxo-2,3,6,7-tetrahydro-1H-purin-1-yl)-L-phenylalanine] yielded a Selectivity at α4β7 integrin [1] of 1300. Also, the IC50 worked out at 0.39 nM at α4β7 integrin [1], 11 nM at α4β7 integrin [2] and 520 nM on α4β1 integrin.

On to `Cn1cnc2c1c(=O)n(-c1ccc(C[C@H](NC(=O)c3c(F)cc(NS(=O)(=O)c4ccc(-c5ccncc5)cc4)cc3F)C(=O)O)cc1)c(=O)n2C` [Example 75, N-(2,6-Difluoro-4-{[(4-pyridin-4-yl-phenyl)sulfonyl]amino}benzoyl)-4-(3,7-dimethyl-2,6-dioxo-2,3,6,7-tetrahydro-1H-purin-1-yl)-L-phenylalanine], for which the Selectivity at α4β7 integrin [1] was determined as 820. The IC50 was determined as 0.38 nM on α4β7 integrin [1], 4.2 nM at α4β7 integrin [2] and 310 nM at α4β1 integrin.

The molecule `Cn1cnc2c1c(=O)n(-c1ccc(C[C@H](NC(=O)c3c(F)cc(NS(=O)(=O)c4ccc(-n5cccc5)cc4)cc3F)C(=O)O)cc1)c(=O)n2C` [Example 76, N-[2,6-Difluoro-4-({[4-(1H-pyrrol-1-yl)phenyl]sulfonyl}amino)benzoyl]-4-(3,7-dimethyl-2,6-dioxo-2,3,6,7-tetrahydro-1H-purin-1-yl)-L-phenylalanine] gave a Selectivity at α4β7 integrin [1] of 410. The values for the IC50 on α4β7 integrin [1], at α4β7 integrin [2] and at α4β1 integrin were 2.2 nM, 22 nM and 910 nM, respectively.

On to `Cn1cnc2c1c(=O)n(-c1ccc(C[C@H](NC(=O)c3c(F)cc(NS(=O)(=O)c4ccc(-c5ncccn5)cc4)cc3F)C(=O)O)cc1)c(=O)n2C` [Example 77, N-(2,6-Difluoro-4-{[(4-pyrimidin-2-yl-phenyl)sulfonyl]amino}benzoyl)-4-(3,7-dimethyl-2,6-dioxo-2,3,6,7-tetrahydro-1H-purin-1-yl)-L-phenylalanine], for which the Selectivity at α4β7 integrin [1] is 560. Moreover, the half-maximal inhibitory concentration (IC50) on α4β7 integrin [1] is 0.27 nM; at α4β7 integrin [2], 9.1 nM; on α4β1 integrin, 150 nM.

As to `COc1ccc2c(c1)c(=O)n(-c1ccc(C[C@H](NC(=O)c3c(F)cc(NS(=O)(=O)c4ccc(C(=O)NC5CC5)cc4)cc3F)C(=O)O)cc1)c(=O)n2C` [Example 78, N-{4-[({4-[(Cyclopropylamino)carbonyl]phenyl}sulfonyl)amino]-2,6-difluorobenzoyl}-4-(6-methoxy-1-methyl-2,4-dioxo-1,4-dihydroquinazolin-3(2H)-yl)-L-phenylalanine], at α4β7 integrin [1], the Selectivity came out at 470. Besides, the values for the IC50 at α4β7 integrin [1], on α4β7 integrin [2] and at α4β1 integrin were 0.79 nM, 19 nM and 370 nM, respectively.

Values taken from US9533985B2, “Sulfonamide derivative and medicinal use thereof” (EA Pharma Co., Ltd., priority 2012, dated 2017).
